In PMC3740339 (Neurotoxicity research, 2009) one finds AC50 data, which are given here for 1 compound.

As a reminder, the AC50 is the midpoint of the concentration-response curve, whichever way the signal moves. A lower AC50 goes with activity at low concentration.

The test addresses tau (htau40), synthetic filaments (Homo sapiens, UniProt P10636). The experiment in a line: Thioflavin S fluorescence displacement from synthetic htau40 filaments. Type of test: binding.

tau (htau40), synthetic filaments, sequence (P10636 1-441 isoform P10636-8): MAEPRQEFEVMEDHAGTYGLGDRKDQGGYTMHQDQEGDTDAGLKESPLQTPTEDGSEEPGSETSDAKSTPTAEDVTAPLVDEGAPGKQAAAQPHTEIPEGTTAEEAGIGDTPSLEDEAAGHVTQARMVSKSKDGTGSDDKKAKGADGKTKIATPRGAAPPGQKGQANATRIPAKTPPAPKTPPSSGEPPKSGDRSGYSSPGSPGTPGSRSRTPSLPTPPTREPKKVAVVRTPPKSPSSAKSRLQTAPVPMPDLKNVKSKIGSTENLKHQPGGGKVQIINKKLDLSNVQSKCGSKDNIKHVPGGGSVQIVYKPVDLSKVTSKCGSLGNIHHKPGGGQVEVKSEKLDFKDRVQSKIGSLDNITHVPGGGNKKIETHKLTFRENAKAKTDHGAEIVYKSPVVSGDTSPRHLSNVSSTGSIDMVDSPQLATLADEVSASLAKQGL

`COc1ccc2nc(/N=N/c3ccc(N(C)C)cc3)sc2c1` [N3, (E)-2-[[4-(dimethylamino)phenyl]azo]-6-methoxybenzothiazole] displayed an AC50 of 36 ± 6 nM.
